What all share (type): cell-based
For one assay, the system named is HeLa-MaTu-ADR. Put plainly: Proliferation assay (crystal violet), HeLa-MaTu-ADR. The note with it: 96 h, 4 days, read-out: Inhibition of proliferation IC50 HeLa-MaTu-ADR. How it is done:
(§1) Cultivated tumor cells (cells were ordered from ATCC, except HeLa-MaTu and HeLa-MaTu-ADR, which were ordered from EPO-GmbH, Berlin) were plated at a density of 1000 to 5000 cells/well, depending on the growth rate of the respective cell line, in a 96-well multititer plate in 200 μL of their respective growth medium supplemented 10% fetal calf serum. After 24 hours, the cells of one plate (zero-point plate) were stained with crystal violet (see below), while the medium of the other plates was replaced by fresh culture medium (200 μl), to which the test substances were added in various concentrations (0 μM, as well as in the range of 0.001-10 μM; the final concentration of the solvent dimethyl sulfoxide was 0.5%). The cells were incubated for 4 days in the presence of test substances. Cell proliferation was determined by staining the cells with crystal violet: the cells were fixed by adding 20 μl/measuring point of an 11% glutaric aldehyde solution for 15 minutes at room temperature. After three washing cycles of the fixed cells with water, the plates were dried at room temperature. The cells were stained by adding 100 μl/measuring point of a 0.1% crystal violet solution (pH 3.0). After three washing cycles of the stained cells with water, the plates were dried at room temperature. The dye was dissolved by adding 100 μl/measuring point of a 10% acetic acid solution. Absorption was determined by photometry at a wavelength of 595 nm. The change of cell number, in percent, was calculated by normalization of the measured values to the absorption values of the zero-point plate (=0%) and the absorption of the untreated (0 μm) cells (=100%). The IC50 values were determined by means of a 4 parameter fit.

Another assay relates to B16F10. The experiment in a line: Proliferation assay (crystal violet), B16F10. As to conditions: Mus musculus, B16-F10, 96 h; B16F10, 4 days; read-out: Inhibition of proliferation IC50 B16F10. How it is done:
as §1

The subject of a further assay is Caco2. The experiment in a line: Proliferation assay (crystal violet), Caco2. The note with it: Homo sapiens, Caco-2, 96 h; Caco2, 4 days; read-out: Inhibition of proliferation IC50 Caco2. As to the method:
as §1

The next assay has as its system DU145. Put plainly: Proliferation assay (crystal violet), DU145. The note with it: Homo sapiens, DU-145, 96 h; DU145, 4 days; read-out: Inhibition of proliferation IC50 DU145. How it is done:
as §1

In another assay the test system is NCI-H460. The experiment in a line: Proliferation assay (crystal violet), NCI-H460. As to conditions: Homo sapiens, 96 h; NCI-H460, 4 days; read-out: Inhibition of proliferation IC50 NCI-H460. How it is done: as §1

For `Cc1nsc(Nc2cncc(-n3cccn3)n2)c1C(=O)Nc1ccc(F)c(F)c1` [Example 64, N-(3,4-Difluorophenyl)-3-methyl-5-{[6-(1H-pyrazol-1-yl)pyrazin-2-yl]amino}-1,2-thiazole-4-carboxamide], the IC50 in the assay on HeLa-MaTu-ADR was 270 nM; in the assay with B16F10, 470 nM; in the assay on Caco2 it was 720 nM; with DU145 it was 470 nM; with NCI-H460, 260 nM.
`Cc1nsc(Nc2cncc(C(F)(F)F)n2)c1C(=O)Nc1ccc(F)c(F)c1` [Example 82, N-(3,4-Difluorophenyl)-3-methyl-5-{[6-(trifluoromethyl)pyrazin-2-yl]amino}-1,2-thiazole-4-carboxamide]: the IC50 in the assay with HeLa-MaTu-ADR was determined as 130 nM; in the assay on B16F10, 140 nM; with Caco2 it was 170 nM; with DU145, 270 nM; with NCI-H460, 56 nM.
The matching figures for `CCc1cnc(Nc2snc(C)c2C(=O)Nc2ccc(F)c(F)c2)cn1` [Example 79, N-(3,4-Difluorophenyl)-5-[(5-ethylpyrazin-2-yl)amino]-3-methyl-1,2-thiazole-4-carboxamide]: 350 nM, 510 nM, 350 nM, 650 nM and 340 nM.
On the same counts, the results for `CCc1ccccc1NC(=O)c1c(C)nsc1Nc1cnc2cc(Cl)ccc2n1` [Example 86, 5-[(6-Chloroquinoxalin-2-yl)amino]-N-(2-ethylphenyl)-3-methyl-1,2-thiazole-4-carboxamide] are 260 nM, 320 nM, 310 nM, 510 nM and 170 nM.
The matching figures for `Cc1nsc(Nc2cnc(Br)cn2)c1C(=O)Nc1ccc(F)c(F)c1` [Example 77, 5-[(5-Bromopyrazin-2-yl)amino]-N-(3,4-difluorophenyl)-3-methyl-1,2-thiazole-4-carboxamide]: 94 nM, 220 nM, 180 nM, 280 nM and 180 nM.
In the case of `CNC(=O)c1cnc(Nc2snc(C)c2C(=O)Nc2ccc(F)c(F)c2)cn1` [Example 75, 5-({4-[(3,4-Difluorophenyl)carbamoyl]-3-methyl-1,2-thiazol-5-yl}amino)-N-methylpyrazine-2-carboxamide], the IC50 in the assay on HeLa-MaTu-ADR was 530 nM; in the assay on B16F10, 3000 nM; in the assay with Caco2, 1300 nM; in the assay with DU145, 2900 nM; in the assay with NCI-H460, 2900 nM.
Take `COc1ccc(NC(=O)c2c(C)nsc2Nc2cnc(C(F)(F)F)cn2)cn1` [Example 85, N-(6-methoxypyridin-3-yl)-3-methyl-5-{[5-(trifluoromethyl)pyrazin-2-yl]amino}-1,2-thiazole-4-carboxamide]: the IC50 in the assay on HeLa-MaTu-ADR is 360 nM; with B16F10, 500 nM; in the assay on Caco2 it was 370 nM; in the assay on DU145 it was 700 nM; in the assay on NCI-H460, 420 nM.
The matching figures for `Cc1nsc(Nc2ccc(C(F)(F)F)nn2)c1C(=O)Nc1ccc(F)c(F)c1` [Example 83, N-(3,4-Difluorophenyl)-3-methyl-5-{[6-(trifluoromethyl)pyridazin-3-yl]amino}-1,2-thiazole-4-carboxamide]: 370 nM, 250 nM, 350 nM, 740 nM and 260 nM.
The matching figures for `Cc1nsc(Nc2cnc(C(F)(F)F)cn2)c1C(=O)Nc1ccc(F)c(F)c1` [Example 81, N-(3,4-Difluorophenyl)-3-methyl-5-{[5-(trifluoromethyl)pyrazin-2-yl]amino}-1,2-thiazole-4-carboxamide]: 230 nM, 200 nM, 210 nM, 680 nM and 240 nM.
The matching figures for `Cc1nsc(Nc2cnc3cc(C(F)(F)F)ccc3n2)c1C(=O)Nc1ccc(F)c(F)c1` [Example 60, N-(3,4-Difluorophenyl)-3-methyl-5-{[6-(trifluoromethyl)quinoxalin-2-yl]amino}-1,2-thiazole-4-carboxamide]: 240 nM, 250 nM, 220 nM, 430 nM and 230 nM.
For the compound `CCc1ccccc1NC(=O)c1c(C)nsc1Nc1cc(C#N)ccn1` [Example 4, 5-[(4-Cyanopyridin-2-yl)amino]-N-(2-ethylphenyl)-3-methyl-1,2-thiazole-4-carboxamide], the IC50 in the assay on HeLa-MaTu-ADR turned out to be 1800 nM; in the assay with B16F10, 2700 nM; in the assay on Caco2, 2400 nM; in the assay with DU145, 6900 nM; with NCI-H460, 2000 nM.
The matching figures for `Cc1nsc(Nc2cncc(Cl)n2)c1C(=O)Nc1ccc(F)c(F)c1` [Example 71, 5-[(6-Chloropyrazin-2-yl)amino]-N-(3,4-difluorophenyl)-3-methyl-1,2-thiazole-4-carboxamide]: 230 nM, 220 nM, 240 nM, 430 nM and 180 nM.
On the same counts, the results for `COc1ccc(NC(=O)c2c(C)nsc2Nc2cncc(C(F)(F)F)n2)cn1` [Example 84, N-(6-methoxypyridin-3-yl)-3-methyl-5-{[6-(trifluoromethyl)pyrazin-2-yl]amino}-1,2-thiazole-4-carboxamide] are 330 nM, 290 nM, 240 nM, 840 nM and 180 nM.
The matching figures for `Cc1nsc(Nc2cncc(-n3cccn3)n2)c1C(=O)Nc1ccc(Cl)c(F)c1` [Example 67, N-(4-Chloro-3-fluorophenyl)-3-methyl-5-{[6-(1H-pyrazol-1-yl)pyrazin-2-yl]amino}-1,2-thiazole-4-carboxamide]: 180 nM, 160 nM, 210 nM, 320 nM and 210 nM.
Turning to `CCNC(=O)c1cncc(Nc2snc(C)c2C(=O)Nc2ccc(F)c(F)c2)n1` [Example 73, 6-({4-[(3,4-Difluorophenyl)carbamoyl]-3-methyl-1,2-thiazol-5-yl}amino)-N-ethylpyrazine-2-carboxamide], the IC50 with HeLa-MaTu-ADR was 100 nM; in the assay on B16F10, 390 nM; in the assay on Caco2, 320 nM; in the assay with DU145, 510 nM; in the assay on NCI-H460, 620 nM.
The matching figures for `Cc1nsc(Nc2cnc3cc(C(F)(F)F)ccc3n2)c1C(=O)Nc1ccc(Cl)c(F)c1` [Example 68, N-(4-Chloro-3-fluorophenyl)-3-methyl-5-{[6-(trifluoromethyl)quinoxalin-2-yl]amino}-1,2-thiazole-4-carboxamide]: 320 nM, 330 nM, 240 nM, 570 nM and 350 nM.
Regarding `Cc1nsc(Nc2ccc(C#N)cn2)c1C(=O)Nc1ccc(Cl)c(Cl)c1` [Example 62, 5-[(5-Cyanopyridin-2-yl)amino]-N-(3,4-dichlorophenyl)-3-methyl-1,2-thiazole-4-carboxamide], the IC50 with B16F10 worked out at 140 nM; with Caco2, 190 nM; with DU145 it was 290 nM; in the assay with NCI-H460, 140 nM.
Consider `CCNc1cncc(Nc2snc(C)c2C(=O)Nc2ccc(F)c(F)c2)n1` [Example 78, N-(3,4-Difluorophenyl)-5-{[6-(ethylamino)pyrazin-2-yl]amino}-3-methyl-1,2-thiazole-4-carboxamide], for which the IC50 came out at 1100 nM with HeLa-MaTu-ADR; 2000 nM with B16F10; 1500 nM in the assay with Caco2; 3000 nM with DU145; 3000 nM with NCI-H460.
As to `Cc1nsc(Nc2cnc(Cl)cn2)c1C(=O)Nc1ccc(F)c(F)c1` [Example 74, 5-[(5-Chloropyrazin-2-yl)amino]-N-(3,4-difluorophenyl)-3-methyl-1,2-thiazole-4-carboxamide], the IC50 worked out at 130 nM with HeLa-MaTu-ADR; 170 nM in the assay with B16F10; 160 nM in the assay on Caco2; 190 nM in the assay with DU145; 120 nM in the assay on NCI-H460.

(Values after patent US9682995B2, “Amino-substituted isothiazoles” (BAYER PHARMA AKTIENGESELLSCHAFT, priority 2013, dated 2017).)
